The values that follow come from article PMC12447391 (2025).

Test [1] concerns R5MPT (DNA, aptamer) CGGGCGACGGGGATTTTTGGTGCACTATGTGGTTCGTTCGGGGTGGGCTGCGTTCTCCATTCTGGTTTTTTCCGATTACAGCC
The test is described as follows: CD. The note with it: PBS, 25 °C; 1 μM aptamer, 1 μM cortisol; peaks shift.

Test [2] has as its system Ref (DNA, aptamer) CGACCGGTCTGGGGACCCTGTCTGGGTGTGTGGGTAGTAGGTCGTTTTTTCCGATTACAGCC
The test is described as follows: ITC. The note with it: PBS, 25 °C.

Test [3] deals with R5MPT (DNA, aptamer) CGGGCGACGGGGATTTTTGGTGCACTATGTGGTTCGTTCGGGGTGGGCTGCGTTCTCCATTCTGGTTTTTTCCGATTACAGCC
The test is described as follows: ITC. The note with it: PBS, 25 °C.

Test [4] has as its system Ref in Apta-gel (DNA, aptamer) CGACCGGTCTGGGGACCCTGTCTGGGTGTGTGGGTAGTAGGTCGTTTTTTCCGATTACAGCC
The test is described as follows: nonfaradic EIS of Apta-gel. The note with it: PBS; effective capacitance rises at 21 °C, falls at 35 °C.

Test [5] deals with R5MPT in Apta-gel (DNA, aptamer) CGGGCGACGGGGATTTTTGGTGCACTATGTGGTTCGTTCGGGGTGGGCTGCGTTCTCCATTCTGGTTTTTTCCGATTACAGCC
The test is described as follows: OECT flow-cell kinetics (koff/kon). The note with it: PBS, 25 °C; apparent; kon 201.4 M^-1 s^-1, koff 0.0067 s^-1; immobilised aptamer.

Test [6] relates to Ref in Apta-gel (DNA, aptamer) CGACCGGTCTGGGGACCCTGTCTGGGTGTGTGGGTAGTAGGTCGTTTTTTCCGATTACAGCC
The test is described as follows: OECT transient response, equilibrium titration. The note with it: PBS, 21 °C; apparent; immobilised aptamer.

Test [7] has as its system TESS.1_trimmed in Apta-gel (DNA, aptamer) ACGGGATGTCCGGGGTACGGTGGTTGCAGTTCGTTTTTTTCCGATTACAGCC
The test is described as follows: OECT transient response, equilibrium titration. The note with it: PBS, immobilised aptamer.

Consider `C[C@]12CCC(=O)C=C1CC[C@@H]1[C@@H]2[C@@H](O)C[C@@]2(C)[C@H]1CC[C@]2(O)C(=O)CO`, for which the binding result in test [1] and in test [4] was “yes” in each case. Also, the KD in test [2] came out at 3.75 µM; in test [3], 10.2 µM; in test [5], 33 µM; in test [6], 45.95 µM.
With `C[C@]12CC[C@H]3[C@@H](CCC4=CC(=O)CC[C@@]43C)[C@@H]1CC[C@@H]2O`, the “KD, apparent” value in test [7] stood at 0.303 µM.
